According to US9604931B2, “Nuclear receptor binding agents” (GTx, Inc., priority 2007, dated 2017):

Key:
rat aorta rings = assay: Rat aortic ring relaxation; details: 10^-6 PE constriction; for EC50: Rattus norvegicus
From the text: Experimental protocol. Equipment used in these studies included a 4-tissue bath system with reservoirs and circulators (RadnotiGlass Technology, Monrovia, Calif.), DSI/Ponemah tissue force analyzer 7700 (Valley View, Ohio), and iWorx/CB Sciencesforce transducers FT-302. The 250 g rats were anesthetized with isoflurane to produce deep anesthesia. The chest of the rat was opened, and about 3 cm length of aorta was removed and placed in a Petri dish containing room temperature Krebs salt solution (KSS, in mM: 120 NaCl, 5 KCl, 1.2 MgSO4.7H20, 2.5 CaCl2.2H2O, 1 KH2PO4, 25 NaHCO3, and 11 glucose). Fat and connective tissue were removed from the aorta taking care not to stretch the vessel. The aorta was then divided into 3-mm-wide rings. Triangular wire holders were inserted through the lumen of the vessel and connected to the force transducer and tissue holder rod in the vessel bath.
Analog-to-digital conversions of force waveforms were accomplished with a DSI/Ponemah tissue force analyzer 7700. The converted data were automatically analyzed with Ponemah Physiology-Smooth Muscle software. All data are summarized as means±standard error. Differences between means were assessed by a conventional ANOVA. This was followed by Student's test. P<0.05 was considered to be statistically significant.
The tension on the rings was adjusted to 1.0 g passive force using the tension adjustment dial for each transducer and allowed to equilibrate for 60 min in the bath with a 95% O2-5% CO2 gas mixture. The rings were washed with fresh buffer every 20 min. Passive force was readjusted to 1.0 g as needed during this period. When rings were stable at 1.0 g of passive force, the baseline was calculated.
Phenylephrine (PE) at a final concentration of […] was added to the bath to contract the ring, and force was allowed to stabilize for 10 min. Then acetylcholine (ACH) at a final concentration of 10^−5 M was added to the precontracted rings to test for endothelial integrity […]. After the initial test for vessel viability and endothelial integrity, the rings were washed three times for 10 min with buffer, allowing it to equilibrate to active force stabilized at 1 g.
Cumulative concentration-response curves to NRBAs were created by increasing the NRBAs concentration in the tissue bath by successive addition of appropriate dilutions of stock solutions to achieve final bath concentrations of 300 nM to 0.15 mM NRBAs.
Table 10 summarizes EC50 values and maximal % decrease of the 10^−6 PE constriction of the aortic ring for individual NRBAs tested

[1] = target: ERα ligand binding domain (Homo sapiens, UniProt P03372); assay: Competitive [3H]-estradiol binding assay, ER-α (Example 21)
Method: ER binding affinity was determined via one of the following methods:
Briefly, the incubation mixture was filtered through a high affinity protein binding filter, and washed several times to remove any unbound radioactivity. The filter plate was air dried and sealed on the bottom.
Nonspecific binding was subtracted from total binding to yield specific binding.

PPAR-γ = PPAR-γ transactivation (PPRE-LUC) in HEK-293 cells co-transfected with ER-β; assay type: cell-based
Method: FIG. 12 depicts the effect of ER-β ligand on PPAR-γ function through ligand binding domain (LBD). (A). HEK-293 cells were transfected with 0.25 μg PPRE-LUC, 5 ng CMV-renilla LUC and the indicated receptors (PPAR-γ and ER-β for the left panel and PPAR-α and ER-β for the right panel). The cells were treated 24 hrs after transfection with the indicated ligands and harvested 48 hrs after transfection and firefly luciferase activity was measured and normalized to renilla luciferase. (B). H475 in ER-β LBD is important for its function. H475 in ER-β LBD was mutated to alanine (A) using a site directed mutagenesis kit. Transactivation assay was performed as described in panel A in HEK-293 cells with a titration of ER-β ligands in wild type (WT) or ER-β H475A. (C). […] The cells were treated 24 hrs after transfection with the indicated ligands and harvested 48 hrs after transfection and firefly luciferase activity was measured and normalized to renilla luciferase. […] The cells were treated 24 hrs after transfection with the indicated ligands and harvested 48 hrs after transfection and firefly luciferase activity was measured and normalized to renilla luciferase. […] The cells were treated 24 hrs after transfection with the indicated ligands and harvested 48 hrs after transfection and firefly luciferase activity was measured and normalized to renilla luciferase. […]

[2] = test system: Rat Aortic Smooth Muscle Cells (RASMC); assay: RASMC cell proliferation assay (WST-1); assay type: cell-based; details: for EC50: Rattus norvegicus, inhibitory effect sigmoid Emax model, read-out: EC50 for inhibition of RASMC proliferation; for Proliferation of RASMC: concentration between 10-30 μM
Method: EC50 values were calculated using WinNonLin 5.0.1 using the inhibitory effect sigmoid Emax model.

ER-β = ER-β (Rattus norvegicus (Rat), UniProt Q62986); assay: ER-β transactivation (ERE-LUC) in COS or 293 cells; assay type: cell-based; details: for activation at 0.1 µM: HEK293, 48 h, read-out: Estradiol activity at 100 nM of NRBA, ER-β, 100 nM compound compared to 1 nM estradiol
Method: COS or 293 cells were plated in DME without phenol red+10% cs FBS at 90,000 cells per well in 24 well plates, and were transfected with 0.25 μg of the vector “ERE-LUC”, where a firefly luciferase gene was driven by two estrogen responsive elements and 0.02 μg of the control CMV-LUC, Renilla where a luciferase gene was driven by a CMV promoter. […] All the receptors were cloned from rat tissue into the PCR3.1 vector backbone. Twenty four hours post transfection, cells were treated with compounds of this invention, estrogen, DHT, and other NRBAs or combinations thereof. Cells were harvested 48 hrs after transfection, and assayed for firefly and Renilla luciferase activity.

[3] = test system: Ishikawa endometrial cells; assay: Ishikawa growth assay (ALP); assay type: cell-based; details: for Concentration at which proliferation of Ishikawa cells was induced: highest concentration tested
Method: Ishikawa cells were plated at 15,000 cells/well in 24 well plates in DME:F12 (1:1)+5% csFBS w/o phenol red. The cells were maintained in this medium at 37° C. for 3 days. Medium was changed immediately prior to drug treatment for an additional 72 hrs. After 72 hrs, the cells were fixed with formalin and the amount of alkaline phosphatase (ALP) measured by para-nitrophenyl phosphate method.
This effect is one potential concern in the development of ER-α SERMs.

ER-β, sequence (Q62986 whole entry): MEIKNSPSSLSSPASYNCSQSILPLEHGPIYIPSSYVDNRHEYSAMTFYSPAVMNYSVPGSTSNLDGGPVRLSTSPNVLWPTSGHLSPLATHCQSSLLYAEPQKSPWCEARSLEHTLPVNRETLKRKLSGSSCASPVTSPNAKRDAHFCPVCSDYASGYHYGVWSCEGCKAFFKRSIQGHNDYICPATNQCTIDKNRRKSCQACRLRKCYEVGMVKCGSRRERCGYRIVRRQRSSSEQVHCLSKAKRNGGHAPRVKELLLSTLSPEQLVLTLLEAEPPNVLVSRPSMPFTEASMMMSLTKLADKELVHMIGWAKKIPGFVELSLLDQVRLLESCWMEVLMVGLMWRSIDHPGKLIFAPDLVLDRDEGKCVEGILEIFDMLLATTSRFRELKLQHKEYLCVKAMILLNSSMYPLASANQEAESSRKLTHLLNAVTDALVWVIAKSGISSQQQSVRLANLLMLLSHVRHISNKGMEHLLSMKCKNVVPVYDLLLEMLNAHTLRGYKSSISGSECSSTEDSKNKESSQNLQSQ
ERα ligand binding domain, sequence (P03372 whole entry, looked up, the tested form may be a part): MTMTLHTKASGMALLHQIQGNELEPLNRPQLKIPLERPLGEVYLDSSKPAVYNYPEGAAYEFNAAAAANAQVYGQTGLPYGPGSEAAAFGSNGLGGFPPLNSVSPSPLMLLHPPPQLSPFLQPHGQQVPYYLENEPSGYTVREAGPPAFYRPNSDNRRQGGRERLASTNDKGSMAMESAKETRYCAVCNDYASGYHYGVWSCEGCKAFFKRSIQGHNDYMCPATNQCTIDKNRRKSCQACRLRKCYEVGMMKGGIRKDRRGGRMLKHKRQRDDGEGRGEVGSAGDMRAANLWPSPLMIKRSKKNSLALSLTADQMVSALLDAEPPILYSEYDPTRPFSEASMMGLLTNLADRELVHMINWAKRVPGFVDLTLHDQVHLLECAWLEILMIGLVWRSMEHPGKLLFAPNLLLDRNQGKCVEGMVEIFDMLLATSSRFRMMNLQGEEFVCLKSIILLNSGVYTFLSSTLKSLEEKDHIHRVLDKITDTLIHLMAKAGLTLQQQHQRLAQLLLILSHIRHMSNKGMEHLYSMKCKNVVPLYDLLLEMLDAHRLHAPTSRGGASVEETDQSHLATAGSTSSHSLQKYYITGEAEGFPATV

Compound	Mean of Maximal % Decrease of the PE constriction of the aortic ring (rat aorta rings)	EC50 (rat aorta rings)	inhibition at 0.1 µM ([1]; 100 nM of compound, read-out: Percent Inhibition of [3H]-Estradiol Binding to ER-α)	Troglitazone-induced PPAR-γ activity (PPAR-γ)	EC50 [2]	Proliferation of RASMC [2]	ER-β agonist activity (ER-β)	activation at 0.1 µM (ER-β)	Ishikawa cell proliferation [3]	Concentration at which proliferation of Ishikawa cells was induced [3]	Ki ([1]; read-out: ER-α binding constant (Ki))
O=c1c2c(O)cc(O)cc2c(Br)cn1-c1ccc(O)cc1 [12u, 4-bromo-6,8-dihydroxy-2-(4-hydroxyphenyl)isoquinolin-1(2H)-one]	50.97%	30 µM	61.3%	partially inhibited	9.56 µM	inhibited the proliferation of RASMC in a dose-dependent manner	ER-β agonist activity	85%	weakly induced Ishikawa cell proliferation	1 µM	–
N#Cc1cn(-c2ccc(O)cc2)c(=O)c2c(O)cc(O)cc12 [14m, 6,8-dihydroxy-2-(4-hydroxyphenyl)-1-oxo-1,2-dihydroisoquinoline-4-carbonitrile]	94.49%	7.64 µM	–	partially inhibited	7.89 µM	inhibited the proliferation of RASMC in a dose-dependent manner	–	74.5%	weakly induced Ishikawa cell proliferation	1 µM	0.094 µM
